For one test, the target named is EZH2 (Homo sapiens, UniProt Q15910). Nature of the test: EZH2 assay: rPRC2 with biotinylated oligonucleosome substrates and 3H SAM, FlashPlate scintillation counting, IC50. The format is biochemical. To be noted: rPRC2, biotinylated oligonucleosome substrates, 3H SAM; read-out: EZH2 IC50. The method, boiled down: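 IC50 from 4-parameter fit, baselines fixed at 0 and 100%. Compounds (top 80 uM, 2-fold series to 0.16 uM) pre-incubated 20 min with 2 nM EZH2-PRC2; 60-min methylation in pH 8.5 Tris with 0.2 uM 3H SAM, 0.2 uM oligonucleosomes, 3.6 uM H3K27me3 peptide.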
Chain of EZH2 (Q15910 whole entry): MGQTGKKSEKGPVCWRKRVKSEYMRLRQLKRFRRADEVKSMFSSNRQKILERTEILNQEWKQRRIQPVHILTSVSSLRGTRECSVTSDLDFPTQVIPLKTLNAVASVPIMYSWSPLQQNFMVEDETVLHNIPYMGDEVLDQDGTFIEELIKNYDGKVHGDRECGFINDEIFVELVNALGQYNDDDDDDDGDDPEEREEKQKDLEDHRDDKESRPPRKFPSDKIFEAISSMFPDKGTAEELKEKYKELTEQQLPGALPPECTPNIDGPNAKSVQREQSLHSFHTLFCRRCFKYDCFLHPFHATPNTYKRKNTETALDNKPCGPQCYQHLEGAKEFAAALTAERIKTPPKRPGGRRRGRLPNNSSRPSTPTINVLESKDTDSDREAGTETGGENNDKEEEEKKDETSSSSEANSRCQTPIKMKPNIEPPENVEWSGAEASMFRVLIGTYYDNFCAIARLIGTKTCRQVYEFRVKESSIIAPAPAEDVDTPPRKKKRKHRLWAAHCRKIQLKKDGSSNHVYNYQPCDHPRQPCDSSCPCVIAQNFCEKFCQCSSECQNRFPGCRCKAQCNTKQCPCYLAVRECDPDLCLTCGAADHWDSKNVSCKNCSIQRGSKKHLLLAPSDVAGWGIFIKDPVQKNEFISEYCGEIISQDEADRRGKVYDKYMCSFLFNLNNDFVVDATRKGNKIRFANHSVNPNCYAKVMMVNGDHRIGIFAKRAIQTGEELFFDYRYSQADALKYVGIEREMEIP
Chain of EZH2 (O75530 whole entry partner): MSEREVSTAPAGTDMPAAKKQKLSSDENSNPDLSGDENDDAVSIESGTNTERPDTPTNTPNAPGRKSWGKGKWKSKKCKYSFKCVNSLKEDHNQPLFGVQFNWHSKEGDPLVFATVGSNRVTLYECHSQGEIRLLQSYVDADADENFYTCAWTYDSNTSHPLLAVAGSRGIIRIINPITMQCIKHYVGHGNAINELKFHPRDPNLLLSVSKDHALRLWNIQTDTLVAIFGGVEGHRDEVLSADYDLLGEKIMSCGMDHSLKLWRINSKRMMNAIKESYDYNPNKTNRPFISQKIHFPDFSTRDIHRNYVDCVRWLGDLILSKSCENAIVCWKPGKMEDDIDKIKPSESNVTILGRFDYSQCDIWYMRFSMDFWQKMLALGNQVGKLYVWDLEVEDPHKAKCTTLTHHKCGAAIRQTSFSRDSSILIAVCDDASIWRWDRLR
Chain of EZH2 (Q15022 whole entry partner): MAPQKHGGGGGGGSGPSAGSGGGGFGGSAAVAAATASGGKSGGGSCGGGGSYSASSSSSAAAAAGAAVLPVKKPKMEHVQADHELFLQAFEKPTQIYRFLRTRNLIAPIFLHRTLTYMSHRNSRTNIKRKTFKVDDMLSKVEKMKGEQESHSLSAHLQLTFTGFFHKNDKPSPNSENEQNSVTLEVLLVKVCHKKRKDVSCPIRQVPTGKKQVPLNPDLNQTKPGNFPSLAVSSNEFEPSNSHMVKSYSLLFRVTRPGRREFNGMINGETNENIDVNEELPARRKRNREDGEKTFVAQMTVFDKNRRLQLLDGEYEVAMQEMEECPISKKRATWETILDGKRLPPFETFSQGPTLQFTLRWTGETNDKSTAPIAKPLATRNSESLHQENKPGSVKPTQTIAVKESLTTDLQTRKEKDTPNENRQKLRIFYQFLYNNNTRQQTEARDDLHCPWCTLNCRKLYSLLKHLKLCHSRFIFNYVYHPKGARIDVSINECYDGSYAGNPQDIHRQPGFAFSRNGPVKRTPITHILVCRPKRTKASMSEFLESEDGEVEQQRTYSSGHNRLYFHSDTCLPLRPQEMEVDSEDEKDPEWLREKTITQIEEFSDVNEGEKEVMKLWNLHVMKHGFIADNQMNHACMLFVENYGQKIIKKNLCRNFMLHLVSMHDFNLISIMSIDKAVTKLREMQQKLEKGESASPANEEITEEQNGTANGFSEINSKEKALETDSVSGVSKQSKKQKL

A further test has as its target Y641N EZH2 (Homo sapiens, UniProt Q15910, Y641N). Nature of the test: Y641N EZH2 assay: performed as the EZH2 assay, using reconstituted H3K27Me2 oligonucleosomes as substrate. The format is biochemical. The protocol:
Assays were carried out by mixing rPRC2 together with biotinylated oligonucleosome substrates in the presence of the radio-labeled enzyme co-factor, S-adenosyl-L-methionine (^3H SAM) (Perkin Elmer) and monitoring the enzymatically mediated transfer of tritiated methyl groups from ^3H SAM to histone lysine residues. The amount of resulting tritated methylhistone product was measured by first capturing the biotinylated oligonuclesomes in streptavidin (SAV) coated FlashPlates (Perkin Elmer), followed by a wash step to remove un-reacted ^3H SAM, and then counting on a TopCount NXT 384 well plate scintillation counter (Perkin Elmer). The final assay conditions for EZH2 were as follows: 50 mM Tris Buffer pH 8.5, 1 mM DTT, 69 uM Brij-35 detergent, 5.0 mM MgCl2, 0.1 mg/mL BSA, 0.2 uM ^3H SAM, 0.2 uM biotinylated oligonucleosomes, 3.6 uM H3K27me3 peptide and 2 nM EZH2.
Compound IC50 measurements were obtained as follows: Compounds were first dissolved in 100% DMSO as 10 mM stock solutions. […] A 12.5 uL volume of the HMT enzyme, H3K27me3 peptide and oligonucleosome substrate in assay buffer was added to each well of the assay plate using a Multidrop Combi (ThermoFisher). Compounds were pre-incubated with the enzyme for 20 min, followed by initiation of the methyltransferase reaction by addition of 12.5 uL of 3H SAM in assay buffer (final volume=25 uL). The final concentrations of compounds ranged from a top default concentration of 80 uM down to 0.16 uM in ten 2-fold dilution steps. Reactions were carried out for 60 minutes and quenched with 20 uL per well of 1.96 mM SAH, 50 mM Tris PH 8.5, 200 mM EDTA. Stopped reactions were transferred to SAV coated Flashplates (Perkin Elmer), incubated for 120 min, washed with a plate washer, and then read on the TopCount NXT (1.0 min/well) to measure the amount of methylhistone product formed during the reaction. The amount of methylhistone product was compared with the amount of product formed in the 0% and 100% inhibition control wells allowing the calculation of % Inhibition in the presence of the individual compounds at various concentrations. IC50's were computed using a 4 parameter fit non-linear curve fitting software package (XLFIT, part of the database package, ActivityBase (IDBS)) where the four parameters were IC50, Hill slope, pre-transitional baseline (0% INH), and post-transitional baseline (100% INH); with the latter two parameters being fixed to zero and 100%, respectively, by default.

The structures appear in SMILES notation.

Consider 40 compounds from patent US20130310379A1, “MODULATORS OF METHYL MODIFYING ENZYMES, COMPOSITIONS AND USES THEREOF” (CONSTELLATION PHARMACEUTICALS, priority 2010, published 2013).

Chain of Y641N EZH2 (Q15910 whole entry Y641N): as the sequence (Q15910 whole entry) above, with Y641N counted along it
Chain of Y641N EZH2 (O75530 whole entry partner): as the sequence (O75530 whole entry partner) above
Chain of Y641N EZH2 (Q15022 whole entry partner): as the sequence (Q15022 whole entry partner) above

With `CCc1cccc(Oc2ccc(C(=O)NC3CC(C)(C)NC(C)(C)C3)cc2Br)c1C#N` [Compound I-369], the 50% inhibitory concentration (IC50) at EZH2 and at Y641N EZH2 was < 5 µM each time.
Take `CC1(C)CC(NC(=O)c2ccc(Oc3cccc(-c4ccnc(N)c4)c3C#N)c(Cl)c2)CC(C)(C)N1` [Compound I-375]: the IC50 at EZH2 and on Y641N EZH2 was < 5 µM each time.
For `CC1(C)CC(NC(=O)c2ccc(Oc3cccc(N4CCCC4)c3)c(Cl)c2)CC(C)(C)N1` [Compound I-379], the IC50 at EZH2 and at Y641N EZH2 was 20 to 80 µM each time.
For `CNCc1cccc(Oc2ccc(C(=O)NC3CC(C)(C)NC(C)(C)C3)cc2Cl)c1C#N` [Compound I-381], the concentration for half-maximal inhibition (IC50) (commonly the concentration that gives 50% inhibition) on EZH2 is < 5 µM; against Y641N EZH2, 20 to 80 µM.
For `CC1(C)CC(NC(=O)c2ccc(Oc3cccc(N4CCCC4=O)c3)c(Cl)c2)CC(C)(C)N1` [Compound I-385], the values for the concentration for half-maximal inhibition (IC50) on EZH2 and at Y641N EZH2 were 5 to 20 µM and > 80 µM, respectively.
Taken in the same sequence, the figures for `CN(C)C(=O)Cn1cc(-c2cccc(Oc3ccc(C(=O)NC4CC(C)(C)NC(C)(C)C4)cc3Cl)c2C#N)cn1` [Compound I-395] were < 5 µM and 5 to 20 µM.
Consider `CC1(C)CC(NC(=O)c2ccc(Oc3cccc(N4CCOCC4=O)c3)c(Cl)c2)CC(C)(C)N1` [Compound I-397], for which the IC50 at EZH2 was 5 to 20 µM; at Y641N EZH2 it was > 80 µM.
Consider `CC1(C)CC(NC(=O)c2ccc(Oc3cccc(-c4cn[nH]c4)c3C#N)c(F)c2)CC(C)(C)N1` [Compound I-398], for which the IC50 on EZH2 is < 5 µM; against Y641N EZH2, 5 to 20 µM.
Turning to `CC1OC(=O)c2c(Oc3ccc(C(=O)NC4CC(C)(C)NC(C)(C)C4)cc3Cl)cccc21` (centres unmarked) [Compound I-401], the half-maximal inhibitory concentration (IC50) at EZH2 and on Y641N EZH2 was < 5 µM throughout.
Regarding `CC1(C)CC(NC(=O)c2ccc(Cn3ccnc3)cc2)CC(C)(C)N1` [Compound I-404], the figures for the IC50 at EZH2 and against Y641N EZH2 were > 80 µM and 20 to 80 µM, respectively.
Regarding `CC1(C)CC(NC(=O)c2ccc(Cn3cnc4ccccc43)cc2)CC(C)(C)N1` [Compound I-405], the IC50 at EZH2 was 20 to 80 µM; against Y641N EZH2, > 80 µM.
Turning to `CC1(C)CC(NC(=O)c2ccc(N3CCC(c4ccccc4)C3)c(Cl)c2)CC(C)(C)N1` (centres unmarked) [Compound I-413], the values for the half-inhibitory concentration (IC50) at EZH2 and on Y641N EZH2 were 20 to 80 µM and > 80 µM, respectively.
For `CNCc1cccc(Oc2ccc(C(=O)NC3CC(C)(C)NC(C)(C)C3)cn2)c1` [Compound I-415], in that order: 20 to 80 µM and > 80 µM.
Consider `CN1CCN(c2cccc(Oc3ccc(C(=O)NC4CC(C)(C)NC(C)(C)C4)cc3Cl)c2)CC1` [Compound I-417], for which the IC50 at EZH2 is 20 to 80 µM; against Y641N EZH2, > 80 µM.
Consider `CC1(C)CC(NC(=O)c2ccc(Oc3cccc4c3CCNC4)c(Cl)c2)CC(C)(C)N1` [Compound I-423], for which the IC50 is < 5 µM at EZH2 and 20 to 80 µM against Y641N EZH2.
For `N#Cc1ccccc1Oc1ccc(C(=O)NC2CCSCC2)cc1Cl` [Compound I-427], the half-inhibitory concentration (IC50) at EZH2 and at Y641N EZH2 was > 80 µM throughout.
For `CC1(C)CC(NC(=O)c2ccc(Oc3cccc(-c4cnccn4)c3C#N)c(Cl)c2)CC(C)(C)N1` [Compound I-428], the figures for the IC50 at EZH2 and against Y641N EZH2 were < 5 µM and 5 to 20 µM, respectively.
`CC1(C)CC(NC(=O)N2CCC(Oc3cccc(-c4cn[nH]c4)c3C#N)CC2)CC(C)(C)N1` [Compound I-429]: the values for the IC50 on EZH2 and at Y641N EZH2 were 20 to 80 µM and > 80 µM, respectively.
Take `CC1(C)CC(NC(=O)c2ccc(C(=O)c3ccccc3)cc2)CC(C)(C)N1` [Compound I-431]: the IC50 at EZH2 was 20 to 80 µM; against Y641N EZH2, > 80 µM.
On to `CC1(C)CC(NC(=O)c2ccc(Oc3cccc(-c4ccncn4)c3C#N)c(Cl)c2)CC(C)(C)N1` [Compound I-480, 3-Chloro-4-(2-cyano-3-(pyrimidin-4-yl)phenoxy)-N-(2,2,6,6-tetramethylpiperidin-4-yl)benzamide], for which the half-maximal inhibitory concentration (IC50) on EZH2 and on Y641N EZH2 was < 5 µM each time.
For `CC1(C)CC(NC(=O)c2ccc(Oc3cccc(N4CCNCC4)c3)c(Cl)c2)CC(C)(C)N1` [Compound I-493], the IC50 was 20 to 80 µM at EZH2 and > 80 µM at Y641N EZH2.
As for `CC(=O)N1CCN(c2cccc(Oc3ccc(C(=O)NC4CC(C)(C)NC(C)(C)C4)cc3Cl)c2)CC1` [Compound I-499], the concentration for half-maximal inhibition (IC50) was 20 to 80 µM at EZH2 and > 80 µM against Y641N EZH2.
With `CC1(C)CC(OC(=O)c2ccc(Oc3cccc(-c4ccnnc4)c3C#N)c(Cl)c2)CC(C)(C)N1` [Compound I-504, 2,2,6,6-tetramethylpiperidin-4-yl 3-chloro-4-(2-cyano-3-(pyridazin-4-yl)phenoxy)benzoate], the IC50 on EZH2 and on Y641N EZH2 was < 5 µM throughout.
Turning to `CC1(C)CC(NC(=O)c2ccc(Oc3cccc(-c4ccnnc4)c3C#N)c(Cl)c2)CC(C)(C)S1(=O)=O` [Compound I-533], the half-inhibitory concentration (IC50) at EZH2 is < 5 µM; at Y641N EZH2 it was > 80 µM.
For `CC(=O)N1CCC(c2cccc(Oc3ccc(C(=O)NC4CC(C)(C)NC(C)(C)C4)cc3)c2C#N)CC1` [Compound I-536], in that order: < 5 µM and 20 to 80 µM.
Regarding `CC1(C)CC(NC(=O)c2ccc(Oc3cccc(-c4ccnnc4)c3C#N)c(Cl)c2)CC(C)(C)C1O` (centres unmarked) [Compound I-548], the half-maximal inhibitory concentration (IC50) is < 5 µM at EZH2 and 20 to 80 µM against Y641N EZH2.
Taken in the same sequence, the figures for `CCOc1cc(-c2cccc(Oc3ccc(C(=O)NC4CC(C)(C)NC(C)(C)C4)cc3Cl)c2C#N)ccn1` [Compound I-556] were < 5 µM and > 80 µM.
Taken in the same sequence, the figures for `CC1(C)CC(NC(=O)c2ccc(Oc3cccc(-c4ccc(O)nc4)c3C#N)c(Cl)c2)CC(C)(C)N1` [Compound I-558] were < 5 µM and < 5 µM.
For `CC1(C)CC(NC(=O)c2ccc(Oc3cccc(C4CCCO4)c3C#N)c(Cl)c2)CC(C)(C)N1` (centres unmarked) [Compound I-560], the values for the concentration for half-maximal inhibition (IC50) on EZH2 and against Y641N EZH2 were < 5 µM and > 80 µM, respectively.
In the case of `CC1(C)CC(NC(=O)c2ccc(Oc3cccc(-c4ccnc(C#N)c4)c3C#N)c(Cl)c2)CC(C)(C)N1` [Compound I-561], the IC50 at EZH2 and at Y641N EZH2 was < 5 µM throughout.
On to `CC1(C)CC(NC(=O)c2ccc(Oc3cccc(-c4ccnnc4)c3C#N)c(Cl)c2)CC(C)(C)C1=O` [Compound I-564], for which the half-maximal inhibitory concentration (IC50) at EZH2 was < 5 µM; on Y641N EZH2 it was > 80 µM.
With `CC1(C)CC(NC(=O)c2ccc(Oc3cccc(-c4cncc(C#N)c4)c3C#N)c(Cl)c2)CC(C)(C)N1` [Compound I-571], the half-inhibitory concentration (IC50) at EZH2 and on Y641N EZH2 was < 5 µM in each case.
As to `Cc1cnccc1-c1cccc(Oc2ccc(C(=O)NC3CC(C)(C)NC(C)(C)C3)cc2Cl)c1C#N` [Compound I-572], the half-maximal inhibitory concentration (IC50) on EZH2 and against Y641N EZH2 was < 5 µM in each case.
`COc1cc(-c2cccc(Oc3ccc(C(=O)NC4CC(C)(C)NC(C)(C)C4)cc3Cl)c2C#N)cc(C)n1` [Compound I-573]: the IC50 at EZH2 is < 5 µM; on Y641N EZH2, 5 to 20 µM.
For `CC1(C)CC(NC(=O)c2ccc(Oc3cccc(-c4ccnc(O)c4)c3C#N)c(Cl)c2)CC(C)(C)N1` [Compound I-583], in that order: < 5 µM and < 5 µM.
In the case of `Cc1cc(-c2cccc(Oc3ccc(C(=O)NC4CC(C)(C)NC(C)(C)C4)cc3Cl)c2C#N)ccn1` [Compound I-584], the concentration for half-maximal inhibition (IC50) at EZH2 and against Y641N EZH2 was < 5 µM in each case.
As for `Cc1cc(-c2cccc(Oc3ccc(C(=O)NC4CC(C)(C)NC(C)(C)C4)cc3Cl)c2C#N)cc(C)n1` [Compound I-585], the IC50 on EZH2 is < 5 µM; on Y641N EZH2, 5 to 20 µM.
`CC1(C)CC(NC(=O)c2ccc(Oc3cccc(-c4ccncc4Cl)c3C#N)c(Cl)c2)CC(C)(C)N1` [Compound I-586]: the half-maximal inhibitory concentration (IC50) at EZH2 and against Y641N EZH2 was < 5 µM each time.
With `CC1(C)CC(NC(=O)c2ccc(Oc3cccc(N4CCOCC4)c3)c(Cl)c2)CC(C)(C)N1` [Compound I-590], the IC50 on EZH2 is 20 to 80 µM; against Y641N EZH2, > 80 µM.
On to `CC1(C)CC(OCc2ccc(Oc3cccc(-c4ccncn4)c3C#N)c(Cl)c2)CC(C)(C)N1` [Compound I-591, 2-(2-chloro-4-(((2,2,6,6-tetramethylpiperidin-4-yl)oxy)methyl)phenoxy)-6-(pyrimidin-4-yl)benzonitrile], for which the concentration for half-maximal inhibition (IC50) at EZH2 is < 5 µM; at Y641N EZH2, 20 to 80 µM.
